Laboratory results: US9969699B2, “Cancer cell growth inhibitor, anticancer agent, and method for screening same, as well as novel compound” (Microbial Chemistry Research Foundation, priority 2014, dated 2018)

Assays:
[1] = tested on: U251 cells; experiment: 3D cell culture step, EGFR vIII gene non-expressing brain tumor cells U251; assay type: cell-based; settings: Test Example 3, U251 cells
Experimental: (§1) The following 3 brain tumor cells were used as the EGFR vIII gene non-expressing cells. • U251 cells (available from ATCC) • U87MG cells (available from ATCC) • KS-1 cells (available from ATCC) <3D Cell Culture Step>
(§2) After the 3 days of culture, the number of viable cells was counted by […]-GLO (trademark) Luminescent Cell Viability Assay (available from Promega), which was a method for quantitating ATP in viable cells. A cell proliferation inhibition rate in the 3D cell culture step was calculated according to (Expression 3) below. Cell proliferation inhibition rate(%)=(1−X/Y)×100 (Expression 3)
(§3) In the (Expression 3), X denotes the number of viable cells when the test substance was added, and Y denotes the number of viable cells when the test substance was not added.

[2] = tested on: mDia; settings: in vitro, reported in NPL 1; cited from earlier work
[3] = Acute toxicity test, intraperitoneal administration; assay type: in vivo, ICR mice; settings: intraperitoneally once; for Organ weight Heart / Organ weight Kidney (Left) / Organ weight Kidney (Right) / Organ weight Liver / Organ weight Lung / Organ weight Spleen / Organ weight Thymus: two weeks after
From the text: Two-weeks after the compounds represented by the Structural Formula (1) at the above concentrations were intraperitoneally administered, the mice were dissected and organs thereof were weighed.
Two-weeks after the compounds represented by the Structural Formula (8) at the above concentrations were intraperitoneally administered, the mice were dissected and organs thereof were weighed.

[4] = tested on: KS-1 cells; experiment: 3D cell culture step, EGFR vIII gene non-expressing brain tumor cells KS-1; assay type: cell-based; settings: Test Example 3, KS-1 cells
Experimental: as §1, §2, §3

[5] = tested on: NIH3T3/EGFRWT cells; experiment: 3D cell culture step, NIH3T3/EGFRWT cells in EGF-including medium; assay type: cell-based, mouse
Experimental: as §2, §3

[6] = tested on: NIH3T3/EGFR vIII cell-transplanted tumor
[7] = Acute toxicity test, tail vein administration; assay type: in vivo, ICR mice; settings: tail vein once; for Organ weight Heart / Organ weight Kidney (Right) / Organ weight Liver / Organ weight Lung / Organ weight Spleen / Organ weight Thymus / Organ weight Kidney (Left): two weeks after
Experimental: Two-weeks after the compounds represented by the Structural Formula (1) at the above concentrations were administered to the tail veins, the mice were dissected and organs thereof were weighed.

[8] = 30 mg/kg intraperitoneally once a day, day 1 to day 17

Nc1ccc(Br)cc1-c1nc2ccccc2[nH]c1=O [Structural Formula (1), 3-(2-amino-5-bromophenyl)-2(1H)-quinoxalinone]
inhibiting activity against scaffold-independent proliferation capacity [1]: did not exhibit an inhibiting activity | inhibition of mDia-mediated actin assembly [2]: inhibit mDia-mediated actin assembly in vitro | Organ weight Heart ([3]; 0.098 mg/kg/0.2 mL): 115.0 mg | Organ weight Kidney (Left) ([3]; 0.098 mg/kg/0.2 mL): 139.0 mg | Organ weight Kidney (Right) ([3]; 0.098 mg/kg/0.2 mL): 147.0 mg | Organ weight Liver ([3]; 0.098 mg/kg/0.2 mL): 1047.0 mg | Organ weight Lung ([3]; 0.098 mg/kg/0.2 mL): 160.0 mg | Organ weight Spleen ([3]; 0.098 mg/kg/0.2 mL): 78.0 mg | Organ weight Thymus ([3]; 0.098 mg/kg/0.2 mL): 67.0 mg | Organ weight Heart ([3]; 0.195 mg/kg/0.2 mL): 125.0 mg | Organ weight Kidney (Left) ([3]; 0.195 mg/kg/0.2 mL): 175.0 mg | Organ weight Kidney (Right) ([3]; 0.195 mg/kg/0.2 mL): 184.0 mg | Organ weight Liver ([3]; 0.195 mg/kg/0.2 mL): 1590.0 mg | Organ weight Lung ([3]; 0.195 mg/kg/0.2 mL): 169.0 mg | Organ weight Spleen ([3]; 0.195 mg/kg/0.2 mL): 121.0 mg | Organ weight Thymus ([3]; 0.195 mg/kg/0.2 mL): 83.0 mg | Organ weight Heart ([3]; 0.39 mg/kg/0.2 mL): 106.0 mg | Organ weight Kidney (Left) ([3]; 0.39 mg/kg/0.2 mL): 157.0 mg | Organ weight Kidney (Right) ([3]; 0.39 mg/kg/0.2 mL): 168.0 mg | Organ weight Liver ([3]; 0.39 mg/kg/0.2 mL): 1350.0 mg | Organ weight Lung ([3]; 0.39 mg/kg/0.2 mL): 160.0 mg | Organ weight Spleen ([3]; 0.39 mg/kg/0.2 mL): 95.0 mg | Organ weight Thymus ([3]; 0.39 mg/kg/0.2 mL): 74.0 mg | Organ weight Heart ([3]; 0.78 mg/kg/0.2 mL): 115.0 mg | Organ weight Kidney (Left) ([3]; 0.78 mg/kg/0.2 mL): 163.0 mg | Organ weight Kidney (Right) ([3]; 0.78 mg/kg/0.2 mL): 159.0 mg | Organ weight Liver ([3]; 0.78 mg/kg/0.2 mL): 1263.0 mg | Organ weight Lung ([3]; 0.78 mg/kg/0.2 mL): 167.0 mg | Organ weight Spleen ([3]; 0.78 mg/kg/0.2 mL): 116.0 mg | Organ weight Thymus ([3]; 0.78 mg/kg/0.2 mL): 78.0 mg | Organ weight Heart ([3]; 1.56 mg/kg/0.2 mL): 134.0 mg | Organ weight Kidney (Left) ([3]; 1.56 mg/kg/0.2 mL): 162.0 mg | Organ weight Kidney (Right) ([3]; 1.56 mg/kg/0.2 mL): 169.0 mg | Organ weight Liver ([3]; 1.56 mg/kg/0.2 mL): 1472.0 mg | Organ weight Lung ([3]; 1.56 mg/kg/0.2 mL): 178.0 mg | Organ weight Spleen ([3]; 1.56 mg/kg/0.2 mL): 103.0 mg | Organ weight Thymus ([3]; 1.56 mg/kg/0.2 mL): 85.0 mg | Organ weight Heart ([3]; 3.125 mg/kg/0.2 mL): 135.0 mg | Organ weight Kidney (Left) ([3]; 3.125 mg/kg/0.2 mL): 193.0 mg | Organ weight Kidney (Right) ([3]; 3.125 mg/kg/0.2 mL): 191.0 mg | Organ weight Liver ([3]; 3.125 mg/kg/0.2 mL): 1558.0 mg | Organ weight Lung ([3]; 3.125 mg/kg/0.2 mL): 179.0 mg | Organ weight Spleen ([3]; 3.125 mg/kg/0.2 mL): 150.0 mg | Organ weight Thymus ([3]; 3.125 mg/kg/0.2 mL): 99.0 mg | Organ weight Heart ([3]; 6.25 mg/kg/0.2 mL): 114.0 mg | Organ weight Kidney (Left) ([3]; 6.25 mg/kg/0.2 mL): 167.0 mg | Organ weight Kidney (Right) ([3]; 6.25 mg/kg/0.2 mL): 163.0 mg | Organ weight Liver ([3]; 6.25 mg/kg/0.2 mL): 1412.0 mg | Organ weight Lung ([3]; 6.25 mg/kg/0.2 mL): 178.0 mg | Organ weight Spleen ([3]; 6.25 mg/kg/0.2 mL): 104.0 mg | Organ weight Thymus ([3]; 6.25 mg/kg/0.2 mL): 68.0 mg | Organ weight Heart ([3]; 12.5 mg/kg/0.2 mL): 107.0 mg | Organ weight Kidney (Left) ([3]; 12.5 mg/kg/0.2 mL): 161.0 mg | Organ weight Kidney (Right) ([3]; 12.5 mg/kg/0.2 mL): 163.0 mg | Organ weight Liver ([3]; 12.5 mg/kg/0.2 mL): 1120.0 mg | Organ weight Lung ([3]; 12.5 mg/kg/0.2 mL): 159.0 mg | Organ weight Spleen ([3]; 12.5 mg/kg/0.2 mL): 98.0 mg | Organ weight Thymus ([3]; 12.5 mg/kg/0.2 mL): 63.0 mg | Organ weight Heart ([3]; 25 mg/kg/0.2 mL): 111.0 mg | Organ weight Kidney (Left) ([3]; 25 mg/kg/0.2 mL): 157.0 mg | Organ weight Kidney (Right) ([3]; 25 mg/kg/0.2 mL): 170.0 mg | Organ weight Liver ([3]; 25 mg/kg/0.2 mL): 1316.0 mg | Organ weight Lung ([3]; 25 mg/kg/0.2 mL): 147.0 mg | Organ weight Spleen ([3]; 25 mg/kg/0.2 mL): 98.0 mg | Organ weight Thymus ([3]; 25 mg/kg/0.2 mL): 92.0 mg | Organ weight Heart ([3]; 50 mg/kg/0.4 mL): 120.0 mg | Organ weight Kidney (Left) ([3]; 50 mg/kg/0.4 mL): 166.0 mg | Organ weight Kidney (Right) ([3]; 50 mg/kg/0.4 mL): 173.0 mg | Organ weight Liver ([3]; 50 mg/kg/0.4 mL): 1747.0 mg | Organ weight Lung ([3]; 50 mg/kg/0.4 mL): 168.0 mg | Organ weight Spleen ([3]; 50 mg/kg/0.4 mL): 132.0 mg | Organ weight Thymus ([3]; 50 mg/kg/0.4 mL): 69.0 mg | toxicity ([3]; 0.098 to 50 mg/kg, observed 2 weeks): no significant toxicity | inhibiting activity against scaffold-independent proliferation capacity [4]: did not exhibit an inhibiting activity | inhibition of proliferation of the NIH3T3/EGFRWT cells ([5]; 3D cell culture step, EGF 50 ng/mL in medium): inhibited proliferation | inhibiting activity against scaffold-independent proliferation capacity ([5]; Test Example 3, NIH3T3/EGFRWT cells, EGF-including medium): exhibited an inhibiting activity | tumor weight versus negative control group ([6]; 30 mg/kg intraperitoneally once a day, 17 days after transplantation, t<0.05): significantly different | mouse body weight (weight loss) [6, 8]: weight loss was not observed | toxicity [6, 8]: no toxicity | tumor proliferation inhibiting activity [6, 8]: exhibited the tumor proliferation inhibiting activity | tumor proliferation inhibiting activity compared with Gefitinib ([6]; 30 mg/kg intraperitoneally vs Gefitinib 100 mg/kg orally): comparable | Organ weight Heart ([7]; 0.39 mg/kg/0.2 mL): 121.0 mg | Organ weight Kidney (Right) ([7]; 0.39 mg/kg/0.2 mL): 168.0 mg | Organ weight Liver ([7]; 0.39 mg/kg/0.2 mL): 1325.0 mg | Organ weight Lung ([7]; 0.39 mg/kg/0.2 mL): 173.0 mg | Organ weight Spleen ([7]; 0.39 mg/kg/0.2 mL): 110.0 mg | Organ weight Thymus ([7]; 0.39 mg/kg/0.2 mL): 83.0 mg | Organ weight Heart ([7]; 0.78 mg/kg/0.2 mL): 116.0 mg | Organ weight Kidney (Left) ([7]; 0.78 mg/kg/0.2 mL): 165.0 mg | Organ weight Kidney (Right) ([7]; 0.78 mg/kg/0.2 mL): 174.0 mg | Organ weight Liver ([7]; 0.78 mg/kg/0.2 mL): 1423.0 mg | Organ weight Lung ([7]; 0.78 mg/kg/0.2 mL): 164.0 mg | Organ weight Spleen ([7]; 0.78 mg/kg/0.2 mL): 115.0 mg | Organ weight Thymus ([7]; 0.78 mg/kg/0.2 mL): 112.0 mg | Organ weight Heart ([7]; 1.56 mg/kg/0.2 mL): 121.0 mg | Organ weight Kidney (Left) ([7]; 1.56 mg/kg/0.2 mL): 170.0 mg | Organ weight Kidney (Right) ([7]; 1.56 mg/kg/0.2 mL): 167.0 mg | Organ weight Liver ([7]; 1.56 mg/kg/0.2 mL): 1471.0 mg | Organ weight Lung ([7]; 1.56 mg/kg/0.2 mL): 170.0 mg | Organ weight Spleen ([7]; 1.56 mg/kg/0.2 mL): 104.0 mg | Organ weight Thymus ([7]; 1.56 mg/kg/0.2 mL): 56.0 mg | toxicity ([7]; observed 2 weeks): no significant toxicity
